Measured values published in the kinase profiling compilation of Christmann-Franck et al. (2016).

Tests used:
Experiment in all cases: KINOMEscan competition binding
Details in all cases: compound 10.0 µM
PIK3C2B (human) = PIK3C2B (human) (UniProt O00750)
ANKK1 (human) = ANKK1 (human) (UniProt Q8NFD2)
MARK3 (human) = MARK3 (human) (UniProt P27448)
PRKCE (human) = PRKCE (human) (UniProt Q02156)
MAPK8 (human) = MAPK8 (human) (UniProt P45983)
STK11 (human) = STK11 (human) (UniProt Q15831)
DYRK1B (human) = DYRK1B (human) (UniProt Q9Y463)
Sequence of DYRK1B (human) (Q9Y463 whole entry, looked up): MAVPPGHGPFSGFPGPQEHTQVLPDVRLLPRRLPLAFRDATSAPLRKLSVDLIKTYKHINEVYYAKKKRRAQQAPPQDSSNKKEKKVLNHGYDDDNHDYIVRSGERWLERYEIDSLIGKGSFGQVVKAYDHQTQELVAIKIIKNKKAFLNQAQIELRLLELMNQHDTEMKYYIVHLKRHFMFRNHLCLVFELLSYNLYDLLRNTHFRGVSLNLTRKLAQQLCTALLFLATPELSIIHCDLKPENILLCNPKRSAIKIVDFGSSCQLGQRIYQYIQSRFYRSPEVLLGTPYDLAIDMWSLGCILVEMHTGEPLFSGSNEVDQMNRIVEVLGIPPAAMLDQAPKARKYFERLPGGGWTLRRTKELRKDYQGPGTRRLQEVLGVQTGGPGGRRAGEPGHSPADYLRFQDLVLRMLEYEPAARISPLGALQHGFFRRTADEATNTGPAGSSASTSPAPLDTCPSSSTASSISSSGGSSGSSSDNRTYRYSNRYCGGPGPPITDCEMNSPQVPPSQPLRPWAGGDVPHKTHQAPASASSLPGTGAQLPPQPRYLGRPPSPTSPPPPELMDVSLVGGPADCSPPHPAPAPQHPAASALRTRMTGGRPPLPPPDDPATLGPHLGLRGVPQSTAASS

PIM1 (human) = PIM1 (human) (UniProt P11309)
ERBB4 (human) = ERBB4 (human) (UniProt Q15303)
TEK (human) = TEK (human) (UniProt Q02763)
CAMK4 (human) = CAMK4 (human) (UniProt Q16566)
KIT (human) = KIT (human) (UniProt P10721)
[1] = target: JAK2 JH1 catalytic (human) (UniProt O60674)
PIP5K1A (human) = PIP5K1A (human) (UniProt Q99755)
ROCK2 (human) = ROCK2 (human) (UniProt O75116)
STK16 (human) = STK16 (human) (UniProt O75716)
ULK2 (human) = ULK2 (human) (UniProt Q8IYT8)
MATK (human) = MATK (human) (UniProt P42679)
TSSK1B (human) = TSSK1B (human) (UniProt Q9BXA7)
BRSK1 (human) = BRSK1 (human) (UniProt Q8TDC3)
STK39 (human) = STK39 (human) (UniProt Q9UEW8)
PDGFRA (human) = PDGFRA (human) (UniProt P16234)
Sequence of PDGFRA (human) (P16234 whole entry, looked up): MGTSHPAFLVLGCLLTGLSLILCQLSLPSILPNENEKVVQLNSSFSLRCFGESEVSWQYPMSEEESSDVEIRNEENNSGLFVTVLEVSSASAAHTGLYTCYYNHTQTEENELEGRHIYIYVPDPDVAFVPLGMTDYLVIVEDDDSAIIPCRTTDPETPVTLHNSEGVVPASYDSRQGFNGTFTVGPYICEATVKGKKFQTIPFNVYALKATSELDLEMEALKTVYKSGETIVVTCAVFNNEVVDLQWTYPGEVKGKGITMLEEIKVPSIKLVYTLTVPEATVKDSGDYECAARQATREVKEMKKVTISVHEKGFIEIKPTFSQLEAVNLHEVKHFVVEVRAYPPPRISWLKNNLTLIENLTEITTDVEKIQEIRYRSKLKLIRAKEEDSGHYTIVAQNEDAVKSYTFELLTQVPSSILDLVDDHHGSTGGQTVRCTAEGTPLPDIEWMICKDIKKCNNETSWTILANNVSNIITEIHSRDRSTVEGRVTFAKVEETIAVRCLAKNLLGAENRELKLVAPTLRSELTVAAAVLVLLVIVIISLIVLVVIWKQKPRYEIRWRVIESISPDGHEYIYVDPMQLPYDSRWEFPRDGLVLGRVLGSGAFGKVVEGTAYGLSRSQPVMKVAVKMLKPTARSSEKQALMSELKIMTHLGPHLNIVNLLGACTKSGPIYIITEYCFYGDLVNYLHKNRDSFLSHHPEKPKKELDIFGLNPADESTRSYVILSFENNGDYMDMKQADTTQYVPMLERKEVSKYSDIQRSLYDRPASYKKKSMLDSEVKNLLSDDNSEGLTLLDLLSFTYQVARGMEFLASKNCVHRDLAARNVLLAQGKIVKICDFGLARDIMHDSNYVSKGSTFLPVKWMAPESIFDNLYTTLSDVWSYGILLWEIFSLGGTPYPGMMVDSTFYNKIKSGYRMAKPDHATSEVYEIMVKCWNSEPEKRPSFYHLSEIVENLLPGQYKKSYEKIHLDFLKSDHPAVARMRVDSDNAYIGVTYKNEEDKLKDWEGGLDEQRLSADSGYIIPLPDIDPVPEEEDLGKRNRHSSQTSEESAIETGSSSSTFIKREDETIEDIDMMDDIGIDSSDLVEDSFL

KDR (human) = KDR (human) (UniProt P35968)
CSF1R (human) = CSF1R (human) (UniProt P07333)
MAP3K12 (human) = MAP3K12 (human) (UniProt Q12852)
Sequence of MAP3K12 (human) (Q12852 whole entry, looked up): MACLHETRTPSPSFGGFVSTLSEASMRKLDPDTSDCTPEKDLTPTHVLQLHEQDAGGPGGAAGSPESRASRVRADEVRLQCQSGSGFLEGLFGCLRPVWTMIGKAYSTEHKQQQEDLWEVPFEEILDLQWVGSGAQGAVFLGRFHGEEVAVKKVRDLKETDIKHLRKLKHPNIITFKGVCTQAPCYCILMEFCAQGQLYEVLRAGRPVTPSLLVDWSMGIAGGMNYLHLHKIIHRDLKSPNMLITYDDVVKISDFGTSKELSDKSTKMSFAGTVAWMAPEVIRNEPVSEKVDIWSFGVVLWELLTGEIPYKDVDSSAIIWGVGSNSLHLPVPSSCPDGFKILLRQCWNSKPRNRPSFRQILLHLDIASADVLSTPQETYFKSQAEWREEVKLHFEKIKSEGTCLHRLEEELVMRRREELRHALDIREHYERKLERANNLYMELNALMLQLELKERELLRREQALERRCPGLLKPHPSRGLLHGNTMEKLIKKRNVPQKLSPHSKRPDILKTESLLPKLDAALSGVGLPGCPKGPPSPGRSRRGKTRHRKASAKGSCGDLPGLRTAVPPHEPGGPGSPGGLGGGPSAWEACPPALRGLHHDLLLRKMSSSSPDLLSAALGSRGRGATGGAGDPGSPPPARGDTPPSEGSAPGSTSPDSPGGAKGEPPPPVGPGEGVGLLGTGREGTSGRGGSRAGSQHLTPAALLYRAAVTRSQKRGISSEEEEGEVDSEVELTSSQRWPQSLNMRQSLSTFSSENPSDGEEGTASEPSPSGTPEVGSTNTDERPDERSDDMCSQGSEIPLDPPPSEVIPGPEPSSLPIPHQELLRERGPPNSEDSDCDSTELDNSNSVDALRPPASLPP

MAP3K7 (human) = MAP3K7 (human) (UniProt O43318)
CDK16 (human) = CDK16 (human) (UniProt Q00536)
IGF1R (human) = IGF1R (human) (UniProt P08069)
ALK (human) = ALK (human) (UniProt Q9UM73)
DMPK (human) = DMPK (human) (UniProt Q09013)
MKNK1 (human) = MKNK1 (human) (UniProt Q9BUB5)
Sequence of MKNK1 (human) (Q9BUB5 whole entry, looked up): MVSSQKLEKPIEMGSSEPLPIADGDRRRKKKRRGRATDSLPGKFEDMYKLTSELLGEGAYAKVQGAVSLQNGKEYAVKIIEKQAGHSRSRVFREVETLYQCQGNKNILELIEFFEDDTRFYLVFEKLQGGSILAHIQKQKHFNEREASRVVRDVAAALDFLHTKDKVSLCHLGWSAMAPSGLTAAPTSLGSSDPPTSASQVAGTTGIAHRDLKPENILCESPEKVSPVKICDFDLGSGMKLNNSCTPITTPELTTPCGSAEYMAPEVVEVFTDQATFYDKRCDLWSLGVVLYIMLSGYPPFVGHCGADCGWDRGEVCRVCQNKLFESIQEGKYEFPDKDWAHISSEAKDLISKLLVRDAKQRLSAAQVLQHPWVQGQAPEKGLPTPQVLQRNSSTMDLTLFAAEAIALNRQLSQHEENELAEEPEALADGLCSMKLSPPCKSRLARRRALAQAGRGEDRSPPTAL

MAPK11 (human) = MAPK11 (human) (UniProt Q15759)
DCLK1 (human) = DCLK1 (human) (UniProt O15075)
Sequence of DCLK1 (human) (O15075 whole entry, looked up): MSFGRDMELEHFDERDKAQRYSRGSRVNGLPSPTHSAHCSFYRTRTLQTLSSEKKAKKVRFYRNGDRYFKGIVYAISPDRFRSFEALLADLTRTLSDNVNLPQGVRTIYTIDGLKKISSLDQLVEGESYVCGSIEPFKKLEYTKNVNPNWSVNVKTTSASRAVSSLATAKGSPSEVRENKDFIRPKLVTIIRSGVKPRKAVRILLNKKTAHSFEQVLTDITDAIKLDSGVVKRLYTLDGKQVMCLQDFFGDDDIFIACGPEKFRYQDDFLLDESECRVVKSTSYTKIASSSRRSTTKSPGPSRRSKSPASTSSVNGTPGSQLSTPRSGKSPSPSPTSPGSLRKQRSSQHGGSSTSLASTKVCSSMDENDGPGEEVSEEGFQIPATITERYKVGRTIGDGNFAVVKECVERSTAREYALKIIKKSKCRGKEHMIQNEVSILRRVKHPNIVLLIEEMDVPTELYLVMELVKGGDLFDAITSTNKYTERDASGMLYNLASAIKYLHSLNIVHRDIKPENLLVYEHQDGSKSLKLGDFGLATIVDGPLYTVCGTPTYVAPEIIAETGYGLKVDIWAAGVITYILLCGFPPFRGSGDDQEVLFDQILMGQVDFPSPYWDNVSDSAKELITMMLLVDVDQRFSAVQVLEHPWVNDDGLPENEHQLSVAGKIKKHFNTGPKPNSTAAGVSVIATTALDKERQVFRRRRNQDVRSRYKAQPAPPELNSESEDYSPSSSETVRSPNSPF

SYK (human) = SYK (human) (UniProt P43405)
PIM2 (human) = PIM2 (human) (UniProt Q9P1W9)
Sequence of PIM2 (human) (Q9P1W9 whole entry, looked up): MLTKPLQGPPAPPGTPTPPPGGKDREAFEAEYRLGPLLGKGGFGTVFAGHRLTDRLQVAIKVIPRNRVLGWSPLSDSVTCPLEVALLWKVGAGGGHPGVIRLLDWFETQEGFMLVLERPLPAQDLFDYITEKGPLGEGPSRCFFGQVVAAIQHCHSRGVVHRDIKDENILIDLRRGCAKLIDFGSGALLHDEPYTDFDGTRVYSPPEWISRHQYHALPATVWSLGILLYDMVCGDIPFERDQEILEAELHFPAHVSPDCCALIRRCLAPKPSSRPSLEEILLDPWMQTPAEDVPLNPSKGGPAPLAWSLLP

WNK1 (human) = WNK1 (human) (UniProt Q9H4A3)
MAPK14 (human) = MAPK14 (human) (UniProt Q16539)
[2] = test system: KIT (human), P10721 [D816V]
PAK4 (human) = PAK4 (human) (UniProt O96013)
AURKB (human) = AURKB (human) (UniProt Q96GD4)
CSNK1A1 (human) = CSNK1A1 (human) (UniProt P48729)

Sequence of MARK3 (human) (P27448 whole entry, looked up): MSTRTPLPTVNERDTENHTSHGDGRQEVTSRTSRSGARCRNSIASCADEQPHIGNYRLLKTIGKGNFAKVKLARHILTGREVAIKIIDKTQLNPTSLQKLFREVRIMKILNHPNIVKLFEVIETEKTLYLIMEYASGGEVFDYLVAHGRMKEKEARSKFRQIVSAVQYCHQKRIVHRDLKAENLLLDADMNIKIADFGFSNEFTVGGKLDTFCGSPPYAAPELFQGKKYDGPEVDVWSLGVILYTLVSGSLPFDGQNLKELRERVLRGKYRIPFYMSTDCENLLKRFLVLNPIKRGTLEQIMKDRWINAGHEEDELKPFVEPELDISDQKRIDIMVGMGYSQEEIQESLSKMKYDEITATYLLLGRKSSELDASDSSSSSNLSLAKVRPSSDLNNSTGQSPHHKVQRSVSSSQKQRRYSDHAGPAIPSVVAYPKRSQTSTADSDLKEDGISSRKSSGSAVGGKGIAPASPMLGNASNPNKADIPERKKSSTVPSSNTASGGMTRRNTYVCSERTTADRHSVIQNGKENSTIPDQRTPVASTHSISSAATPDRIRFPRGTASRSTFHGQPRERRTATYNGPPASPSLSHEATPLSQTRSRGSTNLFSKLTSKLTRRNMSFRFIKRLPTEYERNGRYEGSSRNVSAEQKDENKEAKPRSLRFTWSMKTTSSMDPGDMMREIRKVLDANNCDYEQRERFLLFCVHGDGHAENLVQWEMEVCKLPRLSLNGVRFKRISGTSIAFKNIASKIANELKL

## O=C(Nc1ccc(Oc2ncnc3[nH]ncc23)cc1)Nc1ccc(Cl)c(C(F)(F)F)c1
PIK3C2B (human)
  kinase still bound, per cent of control: 80%
ANKK1 (human)
  kinase still bound, per cent of control: 89%
MARK3 (human)
  kinase still bound, per cent of control: 75%
PRKCE (human)
  kinase still bound, per cent of control: 86%
MAPK8 (human)
  kinase still bound, per cent of control: 85%
STK11 (human)
  kinase still bound, per cent of control: 97%
DYRK1B (human)
  kinase still bound, per cent of control: 96%
PIM1 (human)
  kinase still bound, per cent of control: 90%
ERBB4 (human)
  kinase still bound, per cent of control: 94%
TEK (human)
  kinase still bound, per cent of control: 25%
CAMK4 (human)
  kinase still bound, per cent of control: 100%
KIT (human)
  kinase still bound, per cent of control: 0.05%
[1]
  kinase still bound, per cent of control: 80%
PIP5K1A (human)
  kinase still bound, per cent of control: 73%
ROCK2 (human)
  kinase still bound, per cent of control: 63%
STK16 (human)
  kinase still bound, per cent of control: 100%
ULK2 (human)
  kinase still bound, per cent of control: 82%
MATK (human)
  kinase still bound, per cent of control: 100%
TSSK1B (human)
  kinase still bound, per cent of control: 86%
BRSK1 (human)
  kinase still bound, per cent of control: 86%
STK39 (human)
  kinase still bound, per cent of control: 72%
PDGFRA (human)
  kinase still bound, per cent of control: 0.4%
KDR (human)
  kinase still bound, per cent of control: 0%
CSF1R (human)
  kinase still bound, per cent of control: 0.3%
MAP3K12 (human)
  kinase still bound, per cent of control: 100%
MAP3K7 (human)
  kinase still bound, per cent of control: 7.2%
CDK16 (human)
  kinase still bound, per cent of control: 98%
IGF1R (human)
  kinase still bound, per cent of control: 100%
ALK (human)
  kinase still bound, per cent of control: 57%
DMPK (human)
  kinase still bound, per cent of control: 100%
MKNK1 (human)
  kinase still bound, per cent of control: 5.4%
MAPK11 (human)
  kinase still bound, per cent of control: 1.2%
DCLK1 (human)
  kinase still bound, per cent of control: 82%
SYK (human)
  kinase still bound, per cent of control: 56%
PIM2 (human)
  kinase still bound, per cent of control: 100%
WNK1 (human)
  kinase still bound, per cent of control: 100%
MAPK14 (human)
  kinase still bound, per cent of control: 0%
[2]
  kinase still bound, per cent of control: 1.7%
PAK4 (human)
  kinase still bound, per cent of control: 100%
AURKB (human)
  kinase still bound, per cent of control: 4.7%
CSNK1A1 (human)
  kinase still bound, per cent of control: 100%
